Data reported in US8969405B2, “Anticancer compounds and methods of making and using same” (St. Jude Children's Research Hospital, priority 2008, dated 2015).

Columns and labels:
[1] = tested on: experimental tumors in mice; conditions: reported, Nakajima et al. 1996; cited from earlier work
[2] = tested on: cell cycle; conditions: reported in the literature; cited from earlier work
[3] = tested on: PC-3 prostate cancer cell line; assay: In vitro cytotoxicity analysis (XTT), 72-hour exposure; format: cell-based; conditions: Homo sapiens, PC3 cells
Method: (§1) Briefly, cell lines were seeded at various cell densities depending on the cell type.
(§2) Tables 1-3 display cytotoxicity data for exemplary compounds following a 72-hour exposure.

[4] = tested on: JeKo-1 mantle cell lymphoma cell line; assay: as above; format: cell-based; conditions: Homo sapiens, JEKo1 cells
Method: as §1, §2

[5] = tested on: NOD/SCID mice; assay: Mouse maximum tolerated dose (MTD) study; format: in vivo; conditions: for fatality: daily for five days, three mice per group
Method: The mice were monitored for one week following compound administration. […] There was one fatality in the IP 25 mg/kg and one in the IV 50 mg/kg groups.

[6] = Stability study in buffer solution by HPLC; format: physicochemical; conditions: 100 μM in PBS buffer and DMSO (2:1)
Method: Stability studies were performed for exemplary compounds 48 and 15. A 100 μM solution of compound 48 was prepared in buffer (PBS, pH 7.4) and warfarin was used as an internal standard. A sample was injected into a HPLC periodically starting at day 0 and ending at about 6 weeks to find out the stability of compound 48 in PBS solution. […] After 6 weeks, 58% of compound 48 remained in the buffer solution.

[7] = tested on: JeKo-1 mantle cell lymphoma tumors; assay: In vivo efficacy study, JeKo-1 tumor-bearing mice
Method: Arrows indicate the dosing schedule. The data are represented as mean±SEM.
Studies were carried out to determine whether the above doses were capable of inhibiting tumor growth in mice (FIG. 4). […] A widely used criterion for determining antitumor activity is tumor growth inhibition (T/C). This value is calculated by dividing the median tumor volumes of treated mice by the median volumes in control mice.

CC(=O)O[C@@H](C)/C=C\C(=O)N[C@@H]1C[C@H](C)[C@H](C/C=C(C)/C=C/[C@H]2O[C@](C)(O)C[C@@]3(CO3)[C@@H]2O)O[C@@H]1C [FR901464]
activity in in vivo cancer animal models [1]: showed activity
effect on the cell cycle [2]: cell cycle arrest at the G1 and G2/M phases

CC[C@H](O)[C@@H](C)[C@H]1O[C@@H]1C[C@H](C)/C=C/C=C(\C)[C@H]1OC(=O)C[C@H](O)CC[C@@](C)(O)[C@@H](OC(C)=O)/C=C/[C@@H]1C [pladienolide]
effect on the cell cycle [2]: cell cycle arrest at the G1 and G2/M phases

CC(/C=C/[C@@H]1C[C@]2(CO2)CC(C)(C)O1)=C\C[C@H]1CC[C@@H](NC(=O)/C=C\[C@H](C)OC(=O)C(C)C)CC1 [Compound 15, (S,Z)-5-((1R,4R)-4-((2E,4E)-5-((3R,5S)-7,7-dimethyl-1,6-dioxaspiro[2.5]octan-5-yl)-3-methylpenta-2,4-dienyl)cyclohexylamino)-5-oxopent-3-en-2-yl isobutyrate]
IC50 [3]: 1900 nM
IC50 [4]: 40 nM
fatality ([5]; IP 25 mg/kg group): one
fatality ([5]; IV 50 mg/kg group): one
blood cell counts in treated versus vehicle-only mice ([5]; NOD/SCID mice, 5-50 mg/kg daily for five days, IV and IP): No significant differences
weight loss ([5]; NOD/SCID mice, 5-50 mg/kg daily for five days, IV and IP, monitored one week after dosing): No significant weight loss
total necropsies, organ histologies ([5]; NOD/SCID mice, treatment and vehicle-only groups): no significant toxicities
compound remaining in the buffer ([6]; after 6 weeks): 53%
half-life at 100 μM ([6]; read-out: calculated half life (converted)): 50.6 days
fatalities or weight loss in efficacy study ([7]; 5, 10, 25, or 50 mg/kg IV daily for five consecutive days): No fatalities or significant weight loss
tumor volumes compared to vehicle-treated mice ([7]; 10, 25, or 50 mg/kg IV daily for five consecutive days from day 4): statistically significant decreases
